The text below walks through data of ChEMBL document CHEMBL1128443, “Synthesis and structure-activity relationships of phenylenebis(methylene)-linked bis-tetraazamacrocycles that inhibit HIV replication. Effects of macrocyclic ring size and substituents on the aromatic linker” (J Med Chem, 1995).

In experiment [1] the test system is Human immunodeficiency virus 2. In words: Concentration required to protect the virus infected cells against viral cytopathicity was measured on HIV-2(ROD) virus strain in MT-4 cells. The class given is functional, organism-based, MT4. On the technique in general: Protection from cytopathic effect is a common read-out in antiviral testing.
Experiment [2] relates to Human immunodeficiency virus 1. In words: Concentration required to protect the virus infected cells against viral cytopathicity was measured on HIV-1(IIIB) virus strain in MT-4 cells. The class given is functional, organism-based, MT4.
The test system of experiment [3] is MT4. In words: Concentration required to reduce the viability of mock-infected MT-4 cells. The class given is functional, Homo sapiens.
In experiment [4] the test system is MT4. Particulars: Homo sapiens.
Where [5] appears, read: Human immunodeficiency virus 2, MT4.
The mark [6] stands for this setting: Human immunodeficiency virus 1, MT4.
The mark [7] stands for this setting: mt4, tested as the Zn salt or complex.

For orientation: EC50 means the concentration giving half of the maximal effect.

In the case of `c1cc(CN2CCNCCNCCNCC2)cc(CN2CCNCCNCCNCC2)c1`, the EC50 worked out at 0.536 µM in experiment [1] (setting [5]) and 0.0751 µM in experiment [2] (setting [6]). In the experiment on MT4 [3] (Homo sapiens, MT4), this compound registered a CC50 of 20 µM.
With `O=[N+]([O-])c1cc(CN2CCCNCCNCCCNCC2)cc(CN2CCCNCCNCCCNCC2)c1`, the EC50 was 0.0569 µM in experiment [1] (setting [5]) and 0.0406 µM in experiment [2] (setting [6]). The compound further showed a CC50 in the experiment with MT4 [3] (Homo sapiens, MT4) of 44 µM.
For “1,1'-[1,4-phenylenebis(methylene)]bis[1,4,8,11-tetraazacyclotetradecane] Palladium Diperchlorate Tetrahydrate (4H2O) [listing 1 of 2 here]”, the CC50 with MT4 [4] was greater than 210 µM.
Regarding `COc1cc(CN2CCCNCCNCCCNCC2)c(OC)cc1CN1CCCNCCNCCCNCC1`, the values for the EC50 in experiment [1] (setting [5]) and in experiment [2] (setting [6]) were 0.0066 µM and 0.0058 µM, respectively. The compound also came in with a CC50 in the experiment on MT4 [3] (Homo sapiens, MT4) greater than 206 µM.
On to `CCN1CCCN(CC)CCN(Cc2ccc(CN3CCCN(CC)CCN(CC)CCCN(CC)CC3)cc2)CCCN(CC)CC1`, for which the EC50 was 14.6 µM in experiment [1] (setting [5]) and 7.79 µM in experiment [2] (setting [6]). The CC50 in the experiment with MT4 [3] (Homo sapiens, MT4) was greater than 341 µM.
Regarding `Fc1c(F)c(CN2CCCNCCNCCCNCC2)c(F)c(F)c1CN1CCCNCCNCCCNCC1`, the EC50 in experiment [1] (setting [5]) and in experiment [2] (setting [6]) was 0.0079 µM throughout. Further, in the experiment with MT4 [3] (Homo sapiens, MT4), the CC50 came to 47 µM.
Regarding `c1cc(CN2CCCNCCNCCCNCC2)cc(CN2CCCNCCNCCCNCC2)c1`, the figures for the EC50 in experiment [1] (setting [5]) and in experiment [2] (setting [6]) were 0.0422 µM and 0.0337 µM, respectively. Also, the CC50 in the experiment with MT4 [3] (Homo sapiens, MT4) is greater than 421 µM.
As to `C1CNCCNCCCNCCNC1`, the results for the EC50 in experiment [1] (setting [5]) and in experiment [2] (setting [6]) were 150 µM and 399 µM, respectively. Besides, the CC50 in the experiment on MT4 [3] (Homo sapiens, MT4) was greater than 1250 µM.
For `c1cc(CCCN2CCCNCCNCCCNCC2)ccc1CCCN1CCCNCCNCCCNCC1` the same measures were 14.5 µM, 0.403 µM and 283 µM.
With `c1cc(CN2CCCNCCNCCNCCC2)cc(CN2CCCNCCNCCNCCC2)c1`, the EC50 in experiment [1] (setting [5]) is 0.645 µM; in experiment [2] (setting [6]), 0.323 µM. The CC50 in the experiment on MT4 [3] (Homo sapiens, MT4) was greater than 403 µM.
Taken in the same sequence, the figures for `Clc1c(Cl)c(CN2CCCNCCNCCCNCC2)c(Cl)c(CN2CCCNCCNCCCNCC2)c1Cl` were 1.96 µM, 0.529 µM and 9 µM.
Taken in the same sequence, the figures for `c1ccc(CN2CCCNCCNCCCNCC2)c(CN2CCCNCCNCCCNCC2)c1` were 3.13 µM, 1.36 µM and greater than 168 µM.
For the compound “1,1'-[1,4-phenylenebis(methylene)]bis[1,4,8,11-tetraazacyclotetradecane]copper Heptahydrate (7H2O) [listing 1 of 2 here]”, the values for the EC50 in experiment [1] (mt4) and in experiment [2] (mt4) were 0.0272 µM and 0.0181 µM, respectively.
On to `Brc1c(CN2CCCNCCNCCCNCC2)cccc1CN1CCCNCCNCCCNCC1`, for which the EC50 stood at 0.246 µM in experiment [1] (setting [5]) and 0.138 µM in experiment [2] (setting [6]). For the same compound, in the experiment on MT4 [3] (Homo sapiens, MT4), the CC50 was greater than 144 µM.
Taken in the same sequence, the figures for `c1cc(CN2CCCNCCNCCNCCC2)ccc1CN1CCCNCCCNCCCNCCC1` were 3.18 µM, 0.318 µM and 101 µM.
As to `O=[N+]([O-])c1cc(CN2CCCNCCNCCCNCC2)ccc1CN1CCCNCCNCCCNCC1`, the EC50 in experiment [1] (setting [5]) is 0.0731 µM; in experiment [2] (setting [6]) it was 0.065 µM. The same compound registered a CC50 in the experiment on MT4 [3] (Homo sapiens, MT4) greater than 203 µM.
Regarding “1,1'-[1,4-phenylenebis(methylene)]bis[1,4,8,11-tetraazacyclotetradecane] Palladium Diperchlorate Tetrahydrate (4H2O) [listing 2 of 2 here]”, the results for the EC50 in experiment [1] (mt4) and in experiment [2] (mt4) were 59.3 µM and 31.5 µM, respectively.
`c1cc(CN2CCNCCCNCCNCC2)cc(CN2CCNCCCNCCNCC2)c1`: the EC50 in experiment [1] (setting [5]) was found to be 0.0618 µM; in experiment [2] (setting [6]), 0.0408 µM. The compound further showed a CC50 in the experiment with MT4 [3] (Homo sapiens, MT4) greater than 184 µM.
With `c1cc(CN2CCCNCCNCCNCCC2)ccc1CN1CCCNCCNCCNCCC1`, the EC50 in experiment [1] (setting [5]) came out at 0.059 µM; in experiment [2] (setting [6]), 0.0253 µM. The CC50 in the experiment with MT4 [3] (Homo sapiens, MT4) was greater than 421 µM.
Regarding “1,1'-[1,4-phenylenebis(methylene)]bis[1,4,8,11-tetraazacyclotetradecane]copper Heptahydrate (7H2O) [listing 2 of 2 here]”, the CC50 in the experiment with MT4 [4] was greater than 201 µM.
With `c1cc(CN2CCCNCCCNCCNCCC2)cc(CN2CCCNCCCNCCNCCC2)c1`, the figures for the EC50 in experiment [1] (setting [5]) and in experiment [2] (setting [6]) were 11.7 µM and 2.72 µM, respectively. In the experiment on MT4 [3] (Homo sapiens, MT4), this compound returned a CC50 greater than 190 µM.
In the case of `c1ccc(-c2cc(CN3CCCNCCNCCCNCC3)cc(CN3CCCNCCNCCCNCC3)c2)cc1`, the EC50 came out at 0.0246 µM in experiment [1] (setting [5]) and 0.206 µM in experiment [2] (setting [6]). The compound further registered a CC50 in the experiment on MT4 [3] (Homo sapiens, MT4) greater than 198 µM.
Taken in the same sequence, the figures for `c1cc(CN2CCCNCCNCCNCCC2)cc(CN2CCCNCCNCCCNCC2)c1` were 0.759 µM, 0.0843 µM and greater than 421 µM.
Regarding `c1cc(CN2CCCNCCNCCCNCC2)ccc1CN1CCCNCCNCCCNCC1` [listing 1 of 2 here], the EC50 in experiment [1] (setting [7]) was found to be 0.0024 µM; in experiment [2] (setting [7]), 0.0033 µM. The CC50 in the experiment with MT4 [3] (tested as the Zn salt or complex) was greater than 251 µM.
Take `c1cc(CN2CCCNCCCNCCCNCCC2)ccc1CN1CCCNCCCNCCCNCCC1`: the EC50 in experiment [1] (setting [5]) amounted to 13.7 µM; in experiment [2] (setting [6]) it was 9.13 µM. The compound also registered a CC50 with MT4 [3] (Homo sapiens, MT4) of 48 µM.
Taken in the same sequence, the figures for `Fc1c(CN2CCCNCCNCCCNCC2)cccc1CN1CCCNCCNCCCNCC1` were 0.0734 µM, 0.0347 µM and greater than 201 µM.
For `Clc1cc(CN2CCCNCCNCCCNCC2)c(Cl)cc1CN1CCCNCCNCCCNCC1` the same measures were 0.0025 µM, 0.0107 µM and 58 µM.
For `c1cc(CN2CCCNCCCNCCNCCC2)ccc1CN1CCCNCCCNCCNCCC1` the same measures were 2.01 µM, 1.67 µM and 171 µM.
In experiment [2] (setting [6]), `c1cc(CN2CCCNCCNCCCNCC2)ccc1CN1CCCNCCNCCCNCC1` [listing 2 of 2 here] had an EC50 of 0.0042 µM. Further, the CC50 in the experiment on MT4 [3] (Homo sapiens, MT4) was greater than 421 µM.
On to `Brc1cc(CN2CCCNCCNCCCNCC2)cc(CN2CCCNCCNCCCNCC2)c1`, for which the EC50 was 0.0538 µM in experiment [1] (setting [5]) and 0.0845 µM in experiment [2] (setting [6]). In the experiment with MT4 [3] (Homo sapiens, MT4), this compound displayed a CC50 greater than 192 µM.
In the case of `c1cc(CN2CCNCCNCCNCC2)ccc1CN1CCNCCNCCNCC1`, the values for the EC50 in experiment [1] (setting [5]) and in experiment [2] (setting [6]) were 2.36 µM and 0.322 µM, respectively. The compound also showed a CC50 with MT4 [3] (Homo sapiens, MT4) of 55 µM.
For `c1cc(CCN2CCCNCCNCCCNCC2)ccc1CCN1CCCNCCNCCCNCC1` the same measures were 69.7 µM, 14.9 µM and greater than 201 µM.
For `Cc1ccc(CN2CCCNCCNCCCNCC2)cc1` the same measures were 1.15 µM, 1.42 µM and greater than 324 µM.
As for `c1cc(CN2CCNCCCNCCNCC2)ccc1CN1CCNCCCNCCNCC1`, the values for the EC50 in experiment [1] (setting [5]) and in experiment [2] (setting [6]) were 0.234 µM and 0.167 µM, respectively. In addition, the CC50 in the experiment with MT4 [3] (Homo sapiens, MT4) was greater than 208 µM.
Take `c1cc(CN2CCCNCCNCCCNCC2)ccc1CN1CCCNCCNCCNCCC1`: the EC50 in experiment [1] (setting [5]) was determined as 0.0556 µM; in experiment [2] (setting [6]), 0.0079 µM. The CC50 in the experiment with MT4 [3] (Homo sapiens, MT4) is greater than 397 µM.
In the case of `NCCCNCCNCCCNCc1ccc(CN2CCCNCCNCCCNCC2)cc1`, the EC50 came out at 0.711 µM in experiment [1] (setting [5]) and 0.373 µM in experiment [2] (setting [6]). This compound returned a CC50 in the experiment with MT4 [3] (Homo sapiens, MT4) greater than 444 µM.
`c1cc(CN2CCCNCCNCCCNCC2)ccc1CN1CCCNCCCNCCCNCCC1`: the values for the EC50 in experiment [1] (setting [5]) and in experiment [2] (setting [6]) were 11.6 µM and 2.43 µM, respectively. Besides, in the experiment on MT4 [3] (Homo sapiens, MT4), the CC50 was greater than 209 µM.
Taken in the same sequence, the figures for `c1ccc(-c2cc(CN3CCCNCCNCCCNCC3)ccc2CN2CCCNCCNCCCNCC2)cc1` were 0.08 µM, 0.106 µM and greater than 198 µM.
Taken in the same sequence, the figures for `c1cc(CN2CCCNCCCNCCCNCCC2)cc(CN2CCCNCCCNCCCNCCC2)c1` were 71.5 µM, 16.7 µM and 193 µM.
For `c1cc(CC2CNCCNCCCNCCNC2)ccc1CC1CNCCNCCCNCCNC1` the same measures were 0.674 µM, 0.506 µM and 406 µM.
`Brc1cc(CN2CCCNCCNCCCNCC2)ccc1CN1CCCNCCNCCCNCC1`: the EC50 turned out to be 0.0035 µM in experiment [1] (setting [5]) and 0.0061 µM in experiment [2] (setting [6]). In the experiment on MT4 [3] (Homo sapiens, MT4), this compound had a CC50 greater than 203 µM.
Regarding `Cc1cc(CN2CCCNCCNCCCNCC2)c(C)cc1CN1CCCNCCNCCCNCC1`, the EC50 is 0.0011 µM in experiment [1] (setting [5]) and 0.0064 µM in experiment [2] (setting [6]). Moreover, in the experiment with MT4 [3] (Homo sapiens, MT4), the CC50 was greater than 208 µM.
